We go through two compounds from patent US20260325655A1, “DECREASING THE INTRINSICALLY DISORDERED PROTEIN ALPHA-SYNUCLEIN’S LEVELS BY TARGETING ITS STRUCTURED MRNA WITH A RIBONUCLEASE TARGETING CHIMERA” (University of Florida Research Foundation, Incorporated, priority 2023, published 2026).

One assay concerns the target SNCA IRE. Description: MST binding affinity for SNCA IRE (A bulge model RNA). The settings on record: microscale thermophoresis; Cy5-labeled RNA. The procedure:
(§1) Binding Affinity Measurements: Microscale Thermophoresis (MST). Binding affinity measurements were performed on a Monolith NT.115 MST system (NanoTemper Technologies) with Cy5-labeled oligonucleotides. Briefly, Cy5-labeled RNA (5 nM) was prepared in 1× Folding Buffer and folded by heating at 60° C. for 5 min and then slowly cooling to room temperature. After cooling, Tween-20 was added to a final concentration of 0.1% (v/v). Compound solutions were prepared separately in 30 μL of 1× Assay Buffer at a final concentration of 5 μM (1% (v/v) DMSO), followed by 1:1 serial dilutions in 1× Assay Buffer. RNA and compound solutions were then mixed 1:1 by volume.
(§2) Samples were incubated for 20 min at room temperature and then loaded into premium capillaries (NanoTemper Technologies, Cat #MO-K025). The following parameters were used for MST measurement: 5-20% LED power (adjusted to keep fluorescence intensity between 8000 and 18000), 80% MST power, Laser-On time=30 s, and Laser-Off time=5 s. The resulting data were analyzed by calculating the change in thermophoresis as a function of compound concentration and fitted by Equation (3) in MST analysis software (NanoTemper Technologies) to yield the dissociation constant (Kd):
(§3) where F is the concentration of fluorescently labeled RNA; unbound and bound refer to the thermophoresis signal at completely unbound and bound state of RNA, respectively; c is the concentration of the compound; f (c) is the thermophoresis signal at compound concentration of c; Kd is the dissociation constant.

For another assay, the system named is fully base paired RNA. The assay is described as follows: MST binding to fully base paired control RNA. The following applies: microscale thermophoresis. As to the method: as §1, §2, §3
For a further assay, the system named is SNCA-UTR-Luciferase. The assay is described as follows: SNCA-UTR luciferase reporter assay. Type of assay: cell-based, human. The following applies: Homo sapiens, M-HeLa; 2 μM; HeLa cells; read-out: decrease of luminescence signal. The text has this: Plasmid constructs and establishment of reporter gene overexpressing cells. Construction of pIRES-Luc-EGFP-puro plasmid and pCDH-α-syn-5′-UTR-Luc-EGFP-puro plasmid used in 5′ UTR-luciferase-based selectivity assay were previously described.^4 Briefly, In-Fusion PCR cloning system (Takara Bio, Mountain View, CA, USA) was used for all plasmid constructions per the manufacturer's instructions. To ensure sequence accuracy, all plasmids generated in this study were confirmed by sequencing.
Luciferase assay. The effect of compounds on translation of SNCA IRE-containing transcript was measured by using a luciferase reporter assay. HeLa cells (~60% confluency) were transfected with plasmids (2 μg per 60 mm dish) by using JetPrime (Polyplus Transfection) according to the manufacturer's recommended procedures. Approximately 16 h after transfection, the transfection cocktail was removed, and the cells were trypsinized and seeded to 96-well plates (8,000 cells per well). After 6 h, cells were treated as described in Cell Culture. To measure the luciferase signals, the cells were then washed with 1× DPBS, and luciferase activity in each well was measured by using the ONE-Glo Luciferase Assay System (Promega) per the manufacturer's instructions. Luminescence from firefly luciferase reaction was measured using a Biomek FLx800 plate reader.

A further assay concerns α-synuclein. Description: α-synuclein protein in iPSC-induced dopaminergic neurons. Type of assay: cell-based, human. The procedure:
Dopamine neuron induction. For dopamine neuronal induction,^15,16 the dual-SMAD inhibition method^17 was used for floor plate (FP)-based midbrain dopamine (DA) neuron induction with modifications. Prior to differentiation, Matrigel matrix (BD) was thawed at 4° C. overnight or on ice until it is dissolved. Matrigel coated 6-well plates were prepared according to manufacturer's instructions and incubated at 37° C. for at least 1 h before use. iPSCs were dissociated with Accutase (STEMCELL Technologies) and plated (3.5×10^5-4×10^5 cells per cm^2) into a new Matrigel coated plate and grown in mTeSR medium (STEMCELL Technologies) with StemBeads FGF2 (StemCultures) and ROCK inhibitor Y27632 (5 μM, Tocris). After 24 to 48 h, when the cells reached 100% confluency, the differentiation protocol was initiated by feeding the cells with DMEM containing 15% KnockOut Serum Replacement (KSR, Gibco), 2 mM L-glutamine (L-Glut) and 10 μM β-mercaptoethanol for 11 days. […]
ELISA (Enzyme-Linked Immunosorbent Assay). […] After compound treatment, total protein was extracted and quantified as described in Western blotting. The concentration of α-synuclein protein was measured by using Human Alpha-synuclein ELISA Kit (Abcam, ab260052) per the manufacturer's recommendations.

`CCOC(=O)C1=C(Nc2ccccc2)S/C(=C\c2ccc(OCCOCCOCCOCCNC(=O)CCCOc3ccc(-n4c(SCC(=O)Nc5ccc6cn[nH]c6c5)nnc4-c4ccncc4)cc3)c(O)c2)C1=O` [Syn-RiboTAC]: binding at SNCA IRE was characterised by a dissociation constant (Kd) of 0.103 ± 0.01 µM. The “binding towards the fully base paired RNA” value in the assay on fully base paired RNA is reported as “no saturable binding”. The inhibition at 2 µM with SNCA-UTR-Luciferase is approximately 40%. In the assay with α-synuclein (2 μM, PD patient-derived (SNCA triplication)), the “decrease of α-synuclein protein levels in dopaminergic neurons” value is ~ 50%.
Take `O=C(CSc1nnc(-c2ccncc2)n1-c1ccc(Br)cc1)Nc1ccc2cn[nH]c2c1` [Synucleozid-2.0]: on SNCA IRE, the affinity, expressed as Kd, was 0.066 ± 0.004 µM. The “binding towards the fully base paired RNA” value with fully base paired RNA was “no saturable binding”. Besides, the inhibition at 2 µM in the assay with SNCA-UTR-Luciferase was approximately 25%. In the assay on α-synuclein (ELISA, FIG. 3D), the “α-synuclein protein levels in dopaminergic neurons (in words)” value is “decreased α-synuclein protein levels”.
